Measured values as given in US20020192754A1 (MAX-PLANCK-GESELLSCHAFT E.V., priority 1999, published 2002).
Like-named read-outs stand apart in the source and are kept apart here. Where a SMILES comes first, the peptide text is derived from it. [ ]: non-standard residue; d: D form. The star is where a group is joined. Sta = CC(C)C[C@H](N)[C@@H](O)CC(=O)O; Isovaleryl = CC(C)CC(=O)*; CH2Cl = ClC*

Assays:
[1] = target: T1, human GzmK (Homo sapiens, UniProt P49863); assay: Inhibition of human GzmK by various inhibitors (residual activity, this study); type: biochemical
T1 construct: Met-Glu N-terminal helper dipeptide (pro-dipeptide) (N, cleaved yes); made in house
T1 sequence (P49863 27-264): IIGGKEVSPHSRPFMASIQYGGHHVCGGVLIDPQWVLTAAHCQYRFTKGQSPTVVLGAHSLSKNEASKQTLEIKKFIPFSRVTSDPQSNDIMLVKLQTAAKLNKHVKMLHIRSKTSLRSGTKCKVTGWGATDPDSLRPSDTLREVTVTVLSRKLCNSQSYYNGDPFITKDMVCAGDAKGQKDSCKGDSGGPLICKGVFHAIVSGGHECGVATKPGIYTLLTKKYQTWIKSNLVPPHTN
Protocol: These activity tests were performed in wells of a 96-cup tray with respectively 150 μl of the sample volume.
The thiobenzylester substrates and Ellman's reagency were diluted to end concentrations of 0.3 mM in the test buffer (150 mM Tris, 50 mM NaCl, 0.01% Triton X-100, pH 7.6). The various granzyme preparations were likewise diluted to 3-15 nM in the test buffer. The color change occurring with the conversion of the substrates was measured at 405 nm and room temperature over 5 minutes in the ELISA reader. The difference in absorptions at the beginning and after 5 minutes as it relates to time was used to calculate the conversion rate.
After a 60-minute preincubation at RT the residual activity was ascertained in triple batches. Initial activities were determined in buffers containing the same proportion of organic solvents. […] Molar concentrations of active aprotinine were ascertained with the use of activity-titrated bovine trypsin.

[2] = target: T1, human GzmK; settings: cited from earlier work
[3] = inhibitor 0.1 mM, I:E 33 x 10^3, 3 nM human GzmK, 60-minute preincubation at RT

## N-tosylphenylalanine chloromethylketone [TPCK]
[1]; inhibitor 0.05 mM, I:E 17 x 10^3, 3 nM human GzmK, 60-minute preincubation at RT
  Residual Activity (%) This study: 96.0%
[2]; table row: inhibitor 0.05 mM
  Residual Activity (%) Babé et al., Bio. Appl. Bioch. 27:117-124 (1998): 95%

## Aprotinine
[1]; inhibitor 0.015 mM, I:E 5 x 10^3, 3 nM human GzmK, 60-minute preincubation at RT
  Residual Activity (%) This study: 8.6%
[2]; table row: inhibitor 0.015 mM
  Residual Activity (%) Babé et al., Bio. Appl. Bioch. 27:117-124 (1998): 0%

## NC(N)=NCCC[C@H](NC(=O)CNC(=O)[C@@H](N)CCC(=O)O)C(=O)CCl [EGR-CMK] (H-Glu-Gly-Arg-CH2Cl)
[1]; [3]
  Residual Activity (%) This study: 54.8%

## N-tosyllysine chloromethylketone [TLCK]
[1]; [3]
  Residual Activity (%) This study: 91.0%
[2]; table row: inhibitor 0.1 mM
  Residual Activity (%) Babé et al., Bio. Appl. Bioch. 27:117-124 (1998): 0%

## Cl.NCCc1ccc(S(=O)(=O)F)cc1 [PefablocSC]
[1]; inhibitor 0.5 mM, I:E 170 x 10^3, 3 nM human GzmK, 60-minute preincubation at RT
  Residual Activity (%) This study: 26.0%
[1]; inhibitor 1.0 mM, I:E 330 x 10^3, 3 nM human GzmK, 60-minute preincubation at RT
  Residual Activity (%) This study: 5.7%

## NC(N)=NCCC[C@H](NC(=O)[C@@H]1CCCN1C(=O)[C@H](N)Cc1ccccc1)C(=O)CCl [FPR-CMK]
[1]; [3]
  Residual Activity (%) This study: 0.0%

## O=C(O)CN(CCN(CC(=O)O)CC(=O)O)CC(=O)O [EDTA]
[1]
  Residual Activity (%) This study: 106.4%
[2]
  Residual Activity (%) Babé et al., Bio. Appl. Bioch. 27:117-124 (1998): 100%

## CC(C)CC(=O)N[C@H](C(=O)N[C@H](C(=O)N[C@@H](CC(C)C)[C@@H](O)CC(=O)N[C@@H](C)C(=O)N[C@@H](CC(C)C)[C@@H](O)CC(=O)O)C(C)C)C(C)C [Pepstatin A] (Isovaleryl-VV[Sta]A[Sta]-OH)
[1]; inhibitor 0.001 mM, I:E 0.3 x 10^3, 3 nM human GzmK, 60-minute preincubation at RT
  Residual Activity (%) This study: 93.0%
[2]; table row: inhibitor 0.001 mM
  Residual Activity (%) Babé et al., Bio. Appl. Bioch. 27:117-124 (1998): 100%

## N=C(N)c1ccccc1 [Benzamidine]
[1]; inhibitor 27.0 mM, I:E 9000 x 10^3, 3 nM human GzmK, 60-minute preincubation at RT
  remaining activity at 27000 µM: 43.1%
[2]; table row: inhibitor 27.0 mM
  Residual Activity (%) Babé et al., Bio. Appl. Bioch. 27:117-124 (1998): 50%

## CC(=O)N[C@@H](CC(C)C)C(=O)N[C@@H](CC(C)C)C(=O)N[C@H](C=O)CCCNC(=N)N [Leupeptin]
[1]; inhibitor 0.2 mM, I:E 67 x 10^3, 3 nM human GzmK, 60-minute preincubation at RT
  remaining activity at 200 µM: 78%
[2]; table row: inhibitor 0.2 mM
  Residual Activity (%) Babé et al., Bio. Appl. Bioch. 27:117-124 (1998): 50%
